Assay results from US8802597B2, “Herbicidal pyrimidines” (E I du Pont de Nemours and Company, priority 2003, dated 2014).

Assays:
[1] = system: barnyardgrass (Echinochloa crus-galli); test: Test C flooded paddy test; type: in vivo; conditions: Flood
Procedure, shortened: (§1)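 Plants were grown to the 2-leaf stage in a flooded paddy, treated, and kept in a greenhouse with untreated controls for 12 to 14 days. Injury was then scored visually against controls on a 0–100 scale, where 0 means no effect and 100 complete control.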

[2] = system: duck salad (Heteranthera limosa); test: Test C flooded paddy test; type: in vivo; conditions: Flood, scale 0 to 100
Procedure, shortened: as §1

[3] = system: rice (Oryza sativa); test: Test C flooded paddy test; type: in vivo; conditions: Flood, scale 0 to 100
Procedure, shortened: as §1

[4] = system: umbrella sedge (Cyperus difformis); test: Test C flooded paddy test; type: in vivo; conditions: Flood, scale 0 to 100
Procedure, shortened: as §1

[5] = system: Italian ryegrass (Lolium multiflorum); test: Test C postemergence; type: in vivo; conditions: for Plant response rating, Ryegrass, Italian: scale 0 to 100
Procedure, shortened: (§2)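 Seeds sown and sprayed preemergence with test compound in non-phytotoxic solvent containing surfactant; postemergence sprays, same formulation, went onto plants 2 to 18 cm tall (1- to 4-leaf stage). Plants held in greenhouse 12 to 14 days, then visually rated against untreated controls on a 0–100 scale (0 no effect, 100 complete control).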

[6] = system: blackgrass (Alopecurus myosuroides); test: Test C postemergence; type: in vivo; conditions: for Plant response rating, Blackgrass: scale 0 to 100
Procedure, shortened: as §2

[7] = system: canarygrass (Phalaris minor); test: Test C postemergence; type: in vivo; conditions: for Plant response rating, Canarygrass: scale 0 to 100
Procedure, shortened: as §2

[8] = system: downy brome (Bromus tectorum); test: Test C postemergence; type: in vivo; conditions: for Plant response rating, Bromegrass, Downy: scale 0 to 100
Procedure, shortened: as §2

[9] = system: green foxtail (Setaria viridis); test: Test C postemergence; type: in vivo; conditions: for Plant response rating, Foxtail, Green: scale 0 to 100
Procedure, shortened: as §2

[10] = system: wheat (Triticum aestivum); test: Test C postemergence; type: in vivo; conditions: for Plant response rating, Wheat: scale 0 to 100
Procedure, shortened: as §2

[11] = system: windgrass (Apera spica-venti); test: Test C postemergence; type: in vivo; conditions: for Plant response rating, Windgrass: scale 0 to 100
Procedure, shortened: as §2

[12] = system: winter barley (Hordeum vulgare); test: Test C postemergence; type: in vivo; conditions: for Plant response rating, Barley: scale 0 to 100
Procedure, shortened: as §2

[13] = 500 g ai/ha, scale 0 to 100 (0 no effect, 100 complete control)

Nc1nc(C2CC2)nc(C(=O)OCc2ccccc2)c1Br [Compound 22, phenylmethyl 6-amino-5-bromo-2-cyclopropyl-4-pyrimidinecarboxylate]
Plant response rating, Barnyardgrass ([1]; 62 g ai/ha, scale 0 to 100): 0 | Plant response rating, Barnyardgrass ([1]; 125 g ai/ha, scale 0 to 100): 0 | Plant response rating, Barnyardgrass ([1]; 250 g ai/ha, scale 0 to 100): 40 | Plant response rating, Barnyardgrass [1, 13]: 70 | Plant response rating, Ducksalad ([2]; 62 g ai/ha): 30 | Plant response rating, Ducksalad ([2]; 125 g ai/ha): 60 | Plant response rating, Ducksalad ([2]; 250 g ai/ha): 90 | Plant response rating, Ducksalad ([2]; 500 g ai/ha): 95 | Plant response rating, Rice ([3]; 62 g ai/ha): 20 | Plant response rating, Rice ([3]; 125 g ai/ha): 20 | Plant response rating, Rice ([3]; 250 g ai/ha): 40 | Plant response rating, Rice ([3]; 500 g ai/ha): 60 | Plant response rating, Sedge, Umbrella ([4]; 62 g ai/ha): 0 | Plant response rating, Sedge, Umbrella ([4]; 125 g ai/ha): 30 | Plant response rating, Sedge, Umbrella ([4]; 250 g ai/ha): 75 | Plant response rating, Sedge, Umbrella ([4]; 500 g ai/ha): 95 | melting point: 129 to 131 °C

CCOC(=O)c1nc(C2CC2)nc(N)c1Cl [Compound 4, ethyl 6-amino-5-chloro-2-cyclopropyl-4-pyrimidinecarboxylate]
Plant response rating, Ryegrass, Italian ([5]; 250 g ai/ha): 65 | Plant response rating, Ryegrass, Italian ([5]; 500 g ai/ha): 65 | pest or weed control at 62 g/ha ([5]; Lolium multiflorum, post-emergence, 62 g ai/ha, scale 0 to 100 (0 no effect, 100 complete control), read-out: Ryegrass, Italian plant response rating): 45% | pest or weed control at 125 g/ha ([5]; Lolium multiflorum, post-emergence, 125 g ai/ha, scale 0 to 100 (0 no effect, 100 complete control), read-out: Ryegrass, Italian plant response rating): 60% | Plant response rating, Blackgrass ([6]; 125 g ai/ha): 65 | Plant response rating, Blackgrass ([6]; 250 g ai/ha): 70 | Plant response rating, Blackgrass ([6]; 500 g ai/ha): 70 | pest or weed control at 62 g/ha ([6]; Alopecurus myosuroides, post-emergence, 62 g ai/ha, scale 0 to 100 (0 no effect, 100 complete control), read-out: Blackgrass plant response rating): 65% | Plant response rating, Canarygrass ([7]; 125 g ai/ha): 45 | Plant response rating, Canarygrass ([7]; 250 g ai/ha): 60 | Plant response rating, Canarygrass ([7]; 500 g ai/ha): 60 | pest or weed control at 62 g/ha ([7]; Phalaris minor, post-emergence, 62 g ai/ha, scale 0 to 100 (0 no effect, 100 complete control), read-out: Canarygrass plant response rating): 35% | Plant response rating, Bromegrass, Downy ([8]; 125 g ai/ha): 60 | Plant response rating, Bromegrass, Downy ([8]; 250 g ai/ha): 65 | Plant response rating, Bromegrass, Downy ([8]; 500 g ai/ha): 70 | pest or weed control at 62 g/ha ([8]; Bromus tectorum, post-emergence, 62 g ai/ha, scale 0 to 100 (0 no effect, 100 complete control), read-out: Bromegrass, Downy plant response rating): 45% | Plant response rating, Foxtail, Green ([9]; 250 g ai/ha): 70 | Plant response rating, Foxtail, Green ([9]; 500 g ai/ha): 75 | pest or weed control at 62 g/ha ([9]; Setaria viridis, post-emergence, 62 g ai/ha, scale 0 to 100 (0 no effect, 100 complete control), read-out: Foxtail, Green plant response rating): 65% | pest or weed control at 125 g/ha ([9]; Setaria viridis, post-emergence, 125 g ai/ha, scale 0 to 100 (0 no effect, 100 complete control), read-out: Foxtail, Green plant response rating): 70% | Plant response rating, Wheat ([10]; 250 g ai/ha): 65 | Plant response rating, Wheat ([10]; 500 g ai/ha): 65 | plant injury at 62 g/ha ([10]; Triticum aestivum, post-emergence, 62 g ai/ha, scale 0 to 100 (0 no effect, 100 complete control), read-out: Wheat plant response rating): 50% | plant injury at 125 g/ha ([10]; Triticum aestivum, post-emergence, 125 g ai/ha, scale 0 to 100 (0 no effect, 100 complete control), read-out: Wheat plant response rating): 60% | Plant response rating, Windgrass ([11]; 250 g ai/ha): 70 | Plant response rating, Windgrass ([11]; 500 g ai/ha): 75 | pest or weed control at 62 g/ha ([11]; Apera spica-venti, post-emergence, 62 g ai/ha, scale 0 to 100 (0 no effect, 100 complete control), read-out: Windgrass plant response rating): 60% | pest or weed control at 125 g/ha ([11]; Apera spica-venti, post-emergence, 125 g ai/ha, scale 0 to 100 (0 no effect, 100 complete control), read-out: Windgrass plant response rating): 65% | Plant response rating, Barley ([12]; 125 g ai/ha): 65 | Plant response rating, Barley ([12]; 250 g ai/ha): 65 | Plant response rating, Barley ([12]; 500 g ai/ha): 65 | plant injury at 62 g/ha ([12]; Hordeum vulgare, post-emergence, 62 g ai/ha, scale 0 to 100 (0 no effect, 100 complete control), read-out: Barley plant response rating): 30% | Plant response rating, Barnyardgrass ([1]; 62 g ai/ha, scale 0 to 100): 0 | Plant response rating, Barnyardgrass ([1]; 125 g ai/ha, scale 0 to 100): 60 | Plant response rating, Barnyardgrass ([1]; 250 g ai/ha, scale 0 to 100): 65 | Plant response rating, Barnyardgrass [1, 13]: 85 | Plant response rating, Ducksalad ([2]; 62 g ai/ha): 70 | Plant response rating, Ducksalad ([2]; 125 g ai/ha): 80 | Plant response rating, Ducksalad ([2]; 250 g ai/ha): 90 | Plant response rating, Ducksalad ([2]; 500 g ai/ha): 100 | Plant response rating, Rice ([3]; 62 g ai/ha): 0 | Plant response rating, Rice ([3]; 125 g ai/ha): 40 | Plant response rating, Rice ([3]; 250 g ai/ha): 75 | Plant response rating, Rice ([3]; 500 g ai/ha): 80 | Plant response rating, Sedge, Umbrella ([4]; 62 g ai/ha): 0 | Plant response rating, Sedge, Umbrella ([4]; 125 g ai/ha): 30 | Plant response rating, Sedge, Umbrella ([4]; 250 g ai/ha): 65 | Plant response rating, Sedge, Umbrella ([4]; 500 g ai/ha): 75 | melting point: 87 to 89 °C
